Measurements from patent publication US20240254533A1, “METHODS FOR PRODUCING TRYPTAMINE DERIVATIVES” (OCTARINE BIO APS, priority 2021, published 2024).

Test: Chemical stability of substituted tryptamine derivatives under alkaline, acidic, oxidative and heat stress
Type: physicochemical
Conditions: for Degradation after 24 h exposure (in words): all conditions tested
Method: Chemical stability of substituted tryptamine derivatives was determined under alkaline, acidic, oxidative and heat stress as follows. 25 mM stock solutions of the target tryptamine molecules were prepared in 100% methanol. 15 μL is mixed with 5 μL of 400 mM HCl solution (final pH=1.1), 400 mM NaOH solution (Final pH=12.5), 12% H2O2 solution (final concentration 3%), or H2O pH 7.0. Acidic, alkaline and oxidative samples were incubated at 30° C. for 24 h while samples in water were incubated at 80° C. for 24 h. A control under ambient conditions was also prepared where 15 μL of the molecule was added to 5 μL H2O pH 7.0 and incubated at 30° C. After 24 h samples were placed on ice and 60 μL of ice-cold 100% methanol is added to each sample. Samples were centrifuged and transferred to HPLC vials for analysis. The remaining concentration was quantified by comparing to authentic analytical standards. Determining the presence of degradation products were determined by comparing with authentic analytical standards.
While the added phosphate group of psilocybin helps protect the molecule from degradation, psilocybin is also relatively unstable, prone to dephosphorylation to psilocin and subsequent degradation. The instability of these molecules hinders formulation and delivery of the compound for therapeutic use. To improve the chemical stability of the active compound psilocin, glycosylation can be used as an effective strategy. […] Degradation of each compound was assessed by measuring the amount of compound remaining after 24 h exposure to each condition.

[1] = pH = 1.1 (HCl), 24 h incubation
[2] = pH = 12.5 (NaOH), 24 h incubation

## CN(C)CCc1c[nH]c2cccc(O[C@@H]3O[C@H](CO)[C@@H](O)[C@H](O)[C@H]3O)c12 [Psilocin glucoside, psilocin-O-β-D-glucoside]
3% H2O2, 24 h incubation
  % left after 24 h: 100.0%
4° C., 24 h incubation
  % left after 24 h: 100.0%
30° C., 24 h incubation
  % left after 24 h: 100.0%
80° C., 24 h incubation
  % left after 24 h: 100.0%
Control
  % left after 24 h: 100.0%
  Degradation after 24 h exposure (in words): practically no signs of degradation
[1]
  % left after 24 h: 100.0%
[2]
  % left after 24 h: 100.0%

## CN(C)CCc1c[nH]c2cccc(O)c12 [Psilocin]
3% H2O2, 24 h incubation
  % left after 24 h: 0.0%
4° C., 24 h incubation
  % left after 24 h: 0.0%
30° C., 24 h incubation
  % left after 24 h: 0.0%
80° C., 24 h incubation
  % left after 24 h: 0.0%
Control
  % left after 24 h: 100.0%
  Degradation after 24 h exposure (in words): complete degradation
[1]
  % left after 24 h: 0.0%
[2]
  % left after 24 h: 0.0%

## CN(C)CCc1c[nH]c2cccc(OP(=O)(O)O)c12 [Psilocybin]
  Degradation after 24 h exposure (in words): much less degradation compared to psilocin
